According to paper PMC10778626, “Efficacy of Novel Quaternary Ammonium and Phosphonium Salts Differing in Cation Type and Alkyl Chain Length against Antibiotic-Resistant Staphylococcus aureus” (International Journal of Molecular Sciences, 2023):
Converted amounts (≈) assume the structure as drawn. Where two headings read alike, the source gives them in different places.

Legend:
[1] = parameters: method as in earlier work; conditions: standard mixture for the calibration line; cited from earlier work
S. aureus CECT 976 [2] = test system: S. aureus CECT 976; parameters: method as in Abreu et al. [44]; conditions: antibiotics, broth microdilution, ref Abreu et al. [44]; cited from earlier work
S. aureus CECT 976 [3] = experiment: MIC/MBC by broth microdilution, S. aureus CECT 976; assay type: cell-based; conditions: Staphylococcus aureus
Method: (§1) The minimum inhibitory concentration (MIC) and minimum bactericidal concentration (MBC) values of all QHSs were determined by the broth microdilution method, according to the approved M7-A7 (aerobes) standards of the Clinical and Laboratory Standards Institute (CLSI) guidelines. Overnight cell cultures of S. aureus, in the exponential phase of growth, were adjusted to an optical density (OD) of 0.132 ± 0.02 (λ = 600 nm). Then, a volume of 180 µL of the cell suspension was added to sterile, flat, clear-bottomed polystyrene (PS) 96-well microtiter plates (VWR—Radnor, PA, USA), already containing 20 µL of each QHS under study at concentrations ranging from 0.0625 to 64 µg/mL. In the end, the volume of each compound never exceeded 10% (v/v) of the well volume. Microtiter plates were then incubated for 24 h at 37 °C under agitation (150 rpm; INCU-Line IL 150R incubator). Absorbance measurements were performed at the beginning (t = 0 h) and end (t = 24 h) of the incubation period using a microtiter plate absorbance reader (BMG LABTECH FLUOstar Omega). Bacterial suspensions with DMSO and without QHSs were used as negative controls. […] All tests were performed with six replicates and a minimum of three independent repeats.
Plates were incubated at 37 °C for 24 h, and growth was visually inspected. […] All tests were performed in triplicate, and with a minimum of three independent repeats.

S. aureus XU212 = experiment: MIC/MBC by broth microdilution, S. aureus XU212; assay type: cell-based; conditions: Staphylococcus aureus
Method: (§2) S. aureus CECT 976, obtained from the Spanish Type Culture Collection, was used as the standard susceptibility testing control strain. This strain has been previously employed in diverse studies to validate the antimicrobial effects of novel molecules. Additional antibiotic-resistant strains, S. aureus XU212, SA1199B, and RN4220, generously provided by S. Gibbons (University College London, London, UK) were tested. […] The SA1199B strain is characterized by its resistance to fluoroquinolones due to the overexpression of the NorA efflux pump and its ciprofloxacin resistance.
as §1
(§3) Plates were incubated at 37 °C for 24 h, and growth was visually inspected. The MBC was determined as the lowest concentration of compound in which the total inhibition of growth on solid medium was observed (no colony forming units (CFUs) were detected). All tests were performed in triplicate, and with a minimum of three independent repeats.

S. aureus SA1199B = experiment: MIC/MBC by broth microdilution, S. aureus SA1199B; assay type: cell-based; conditions: Staphylococcus aureus
Method: as §2, §1, §3

S. aureus RN4220 = experiment: MIC/MBC by broth microdilution, S. aureus RN4220; assay type: cell-based; conditions: Staphylococcus aureus
Method: as §2, §1, §3

S. aureus CECT 976 [4] = experiment: Quantitative suspension test, dose-response against planktonic bacteria; assay type: cell-based, Staphylococcus aureus; conditions: S. aureus CECT 976; 30 min exposure
Method: A quantitative suspension test to explore the dose–response relationships of QHSs by evaluating bactericidal activity was performed. For this method, overnight grown cultures were centrifuged (VWR Mega Star 600R) at 3772× g for 10 min and washed twice with phosphate-buffered saline (PBS; 1.44 g/L of […]—Labkem, Barcelona, Spain; 8 g/L of sodium chloride, 0.2 g/L of potassium chloride, and 0.24 g/L of potassium dihydrogen phosphate—VWR, Leuven, Belgium) at pH 7.4. The collected cells were resuspended in PBS and adjusted to an optical density (OD) of 0.132 ± 0.02 (λ = 600 nm). Afterwards, 100 µL of this cell suspension was aseptically transferred to 800 µL of DW and allowed to stand for 2 min. To this mixture, 100 µL of each QHS solution diluted in DMSO at the desired concentration was added. The dose–response evaluation took place for 30 min at 37 °C. In the case of the negative control (untreated cells), the QHS solution was replaced by an equal volume of DMSO or DW. At the end of the contact time, QHS neutralization was performed through the dilution-neutralization method using a universal neutralizer (1 g/L L-histidine (Merck—Tokyo, Japan), 3 g/L lecithin (Alfa Aesar—Karlsruhe, Germany), 5 g/L sodium thiosulphate (Labkem—Barcelona, Spain), 30 g/L saponin (VWR Chemicals—Leuven, Belgium), and 30 g/L polysorbate 80 (VWR Chemicals—Le Havre, France) in 0.0025 M phosphate buffer). For neutralization, the test blend (100 µL) was added to 800 µL sterile aqueous neutralizing solution and 100 µL of DW. The mixture was gently agitated and allowed to stand for 10 min, after which serial dilutions (up to 10^−5) in sterile saline solution (0.85% w/v NaCl) were prepared. Then, 10 µL of each serial dilution was plated into Petri dishes containing PCA by the drop-plating method. The plates were allowed to set, then inverted and placed in an incubator at 37 °C for 24 h. The surviving cells on the QHS neutralized samples were determined by CFU counting on each plate, ensuring the counting of dilution plates that gave between 10 and 100 CFUs. The antibacterial activity was evaluated by quantification of logarithmic reduction (log CFU/mL), according to Equation (2). log CFU/mL reduction = log (X) − log (X0), (2) where X0 and X are the counts of CFU/mL before (untreated control cells) and after quaternary salt exposure, respectively.
The QHS concentrations chosen for conducting the dose–response tests comprise of the MBC, which causes the complete reduction of planktonic cells, as well as lower concentrations. Specifically, compound 1e was evaluated at concentrations of 0.25, 0.5, 0.75, 1, 2, 4, 8, and 16 µg/mL, compound 7e at concentrations of 1, 2, 3.2, 3.5, 4, 8, and 16 µg/mL, compound 5e at concentrations of 0.5, 1, 1.3, 1.6, 2, 4, and 8 µg/mL, and compound 3e at concentrations of 0.5, 0.75, 1, 1.3, 1.6, 2, 4, and 8 µg/mL. In the case of compounds 2e, 6e, and 4e, concentrations tested were 0.5, 1, 1.6, 2, 4, and 8 µg/mL. All tests were performed in duplicate, and with a minimum of three independent repeats.
The Chick–Watson mathematical model, provided in Equation (3), is considered an adequate approach to validate the kinetics of dose–response data. log X/X0 = − Kdis C^n t (3) where X0 and X are the counts of CFU/mL before and after quaternary salt exposure, respectively; Kdis is a killing rate coefficient ((mL.µg^−1)^n.min^−1); C is the quaternary salt concentration (µg.mL^−1); n is the concentration exponent and t is the exposure time (min). The concentration dependence of killing (n) was determined using a toolbox for linear regression in GraphPad Prism (version 8.4.0, GraphPad Software, La Jolla, CA, USA). The quality of the model was evaluated through the regression coefficient (R^2).

HepG2 cells = experiment: Cytotoxicity by neutral red (NR) uptake; assay type: cell-based, human; conditions: HepG2, 24 h
Method: The evaluation of the cytotoxicity effects of QHSs was performed using hepatocellular carcinoma (HepG2) cells. […] The cells used for all experiments were taken between the 9th and 13th passages, to avoid phenotypic changes.
The cytotoxicity profile of the compounds under study was evaluated in HepG2 cells (2.5 × 10^5 cells/mL) seeded in 96-well plates. […] Control experiments were performed for viability endpoints by adding the vehicle (medium with 0.1% DMSO) instead of the compound solution.
In the NR uptake assay, following a 24 h incubation period with the test compounds, the cell culture medium was aspirated, and fresh medium containing 150 µL of the dye (at a concentration of […]) was added to the cells. […] After incubation, the cell culture medium was discarded, and a mixture of absolute ethanol and distilled water (1:1) containing 5% acetic acid was added to extract the dye accumulated within the lysosomes of viable cells. The absorbance at 540 nm was measured using a microplate reader (Synergy HTX Multi-Mode Reader—BioTek, Winooski, VT, USA).
For all assays, results are expressed as a percentage of the control (nontreated cells), taken as 100%.

[5] = Chromatographic hydrophobicity index (CHI) by UHPLC; assay type: physicochemical; conditions: for CHI: LC/UV at pH 2.6, calculated from retention time with the calibration line; for chromatographic logP: back-calculated from CHI at pH 2.6: CHI LogP = 0.047 × CHI + 0.36 × HBC − 1.10
Method: The chromatographic hydrophobicity index (CHI) values were determined using the retention times (tR) of the samples under study and of a mixture of standard compounds on a UHPLC NEXERA SERIES LC-40 with a Luna C18 (2) column of 150 × 4.6 mm, 5 μm (Phenomenex, Torrance, CA, USA). Stock solutions of the test compounds (10 mM) were prepared in dimethyl sulfoxide (DMSO, 99.9%; Carlo Erba) and diluted in acetonitrile/water (1:1) to obtain a final concentration of 500 μM. The mobile phase A was 1.0% (v/v) aqueous acetic acid solution (pH = 2.6), and the mobile phase B was acetonitrile. The following gradient programme was applied: 1–7 min 0–100% B, 7–17 min 100% B, 17–19 min 100–0% B, 1 mL/min flow; rt, injection volume 40 μL.
A calibration line was obtained using a mixture of the following compounds: benzimidazole, theophylline, paracetamol, caffeine, colchicine, carbamazepine, indole, propiophenone, butyrophenone, valerophenone, and heptanophenone (Table S1 and Figure S50, Supplementary Materials). The experimental CHI values of the compounds tested at pH 2.6 were then converted to the logarithm of octanol/water partition coefficient (CHI LogP) values using Equation (1). CHI LogP = 0.047 × CHI + 0.36 × HBC − 1.10 (1) where HBC is the hydrogen bond donor count.

[6] = CECT976, S. aureus CECT 976, broth microdilution, 24 h, 37 °C, read-out: MIC
[7] = CECT976, S. aureus CECT 976, broth microdilution, plated on PCA, read-out: MBC

Compound	CHI0 pH 2.6 [1]	MIC (S. aureus CECT 976 [3]; [6])	MBC (S. aureus CECT 976 [3]; [7])	CHI [5]	chromatographic logP [5]	further results
Cn1c(=O)c2c(ncn2C)n(C)c1=O [Caffeine]	23.41					
Cn1c(=O)c2[nH]cnc2n(C)c1=O [Theophylline]	17.90					
CC1(C)S[C@@H]2[C@H](NC(=O)[C@H](N)c3ccccc3)C(=O)N2[C@H]1C(=O)O [[AMP], ampicillin]						MIC (S. aureus CECT 976 [2]): 1.5 µg/mL (≈ 4.29 µM)
CCCCCCCCCCCCCC[N+](CC)(CC)CC.[Br-] [Compound 7e, N,N,N-Triethyltetradecan-1-aminium bromide]		2 µg/mL	16 µg/mL			MBC (S. aureus XU212): 32 µg/mL; MIC (S. aureus XU212): 32 µg/mL; MBC (S. aureus SA1199B): 32 µg/mL; MIC (S. aureus SA1199B): 16 µg/mL; MBC (S. aureus RN4220): 8 µg/mL; MIC (S. aureus RN4220): 4 µg/mL; concentration inducing reductions in S. aureus log CFU/mL > 5 (S. aureus CECT 976 [4]): 3.4 μg/mL; NR uptake (lysosomal activity), % of control (HepG2 cells; 2 µg/mL): 86.24 ± 1.502% (****); NR uptake (lysosomal activity), % of control (HepG2 cells; 16 µg/mL): 18.51 ± 2.592% (****); NR uptake (lysosomal activity), % of control (HepG2 cells; 32 µg/mL): 16.59 ± 4.378% (****)
CCC(=O)c1ccccc1 [Propiophenone]	77.40					
CCCCCCC(=O)c1ccccc1 [Heptanophenone]	112.1					
COc1cc2c(c(OC)c1OC)-c1ccc(OC)c(=O)cc1[C@@H](NC(C)=O)CC2 [Colchicine]	43.90					
NC(=O)N1c2ccccc2C=Cc2ccccc21 [Carbamazepine]	60.42					
c1ccc2[nH]ccc2c1 [Indole]	72.10					
CC(=O)Nc1ccc(O)cc1 [Paracetamol]	18.77					
Cc1onc(-c2ccccc2)c1C(=O)N[C@@H]1C(=O)N2[C@@H]1SC(C)(C)[C@@H]2C(=O)O [[OXA], oxacillin]						MIC (S. aureus CECT 976 [2]): 0.48 µg/mL (≈ 1.2 µM)
CCCCCCCCCCCCCCCCCC[n+]1cccc2ccccc21.[Br-] [Compound 5g, 1-Octadecylquinolin-1-ium bromide]		16 µg/mL	16 µg/mL	112.9	4.21	
CCCC(=O)c1ccccc1 [Butyrophenone]	87.30					
CCCCCCCCCCCCCCCC[n+]1ccc2ccccc2c1.[Br-] [Compound 3f, 2-Hexadecylisoquinolin-2-ium bromide]		4 µg/mL	8 µg/mL	100.8	3.64	
CCCCCC[n+]1ccn(C)c1.[Br-] [Compound 2a, 3-Hexyl-1-methyl-1H-imidazol-3-ium bromide]				29.35	0.279	MBC (S. aureus CECT 976 [3]; CECT976): > 64 µg/mL; MIC (S. aureus CECT 976 [3]; CECT976, 24 h): > 64 µg/mL
c1ccc2[nH]cnc2c1 [Benzimidazole]	6.300					
CCCCCC[n+]1ccccc1.[Br-] [Compound 6a, 1-Hexylpyridin-1-ium bromide]		> 64 µg/mL	> 64 µg/mL	27.07	0.172	
CCCCCC[n+]1ccc2ccccc2c1.[Br-] [Compound 3a, 2-Hexylisoquinolin-2-ium bromide]		> 64 µg/mL	> 64 µg/mL	37.81	0.677	
CCCCCCCCCCCC[n+]1ccc2ccccc2c1.[Br-] [Compound 3d, 2-Dodecylisoquinolin-2-ium bromide]		2 µg/mL	16 µg/mL	74.48	2.4	
CCCCC(=O)c1ccccc1 [Valerophenone]	96.40					
